Assay [1] in a line: A cytotoxicity screen of small molecule inhibitors of the PhoP region in Salmonella typhi identified in the primary screen. [Related pubchem assays: 1850, 1864, 1985 ]. Type of assay: functional.
A short description of assay [2]: cells. Type of assay: functional, cell-based.
A short description of assay [3]: cells. The assay is classed as functional, cell-based. This is another data set of the same source.
The target in the next assay is T1, Leucine aminopeptidase (Plasmodium falciparum 3D7, UniProt Q8IL11).
T1 sequence (Q8IL11 whole entry): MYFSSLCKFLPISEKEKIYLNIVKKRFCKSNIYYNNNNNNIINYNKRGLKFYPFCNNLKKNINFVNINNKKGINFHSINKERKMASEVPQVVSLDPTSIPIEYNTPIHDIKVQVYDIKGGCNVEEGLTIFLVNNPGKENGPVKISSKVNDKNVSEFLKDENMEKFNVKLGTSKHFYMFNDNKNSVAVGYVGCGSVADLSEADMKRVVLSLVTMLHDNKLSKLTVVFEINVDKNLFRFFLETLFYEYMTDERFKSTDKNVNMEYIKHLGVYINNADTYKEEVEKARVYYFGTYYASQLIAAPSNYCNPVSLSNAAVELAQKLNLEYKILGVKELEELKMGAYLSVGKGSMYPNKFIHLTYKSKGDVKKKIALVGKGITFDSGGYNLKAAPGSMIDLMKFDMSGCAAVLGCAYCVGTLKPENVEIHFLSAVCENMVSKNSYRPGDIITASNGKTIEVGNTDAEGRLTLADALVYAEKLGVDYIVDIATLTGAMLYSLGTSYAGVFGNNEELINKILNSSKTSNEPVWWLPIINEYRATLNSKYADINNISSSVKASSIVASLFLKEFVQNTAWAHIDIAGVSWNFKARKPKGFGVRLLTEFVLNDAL
The assay is described as follows: P. falciparum M17LAP inhibitors, primary screen, biochemical, fluorogenic H-Leu-NHMec substrate, 1536-well (AID 1619). Type of assay: functional.

A short description of assay [4]: NIH:OVCAR-3 ovarian cancer cell cytotoxicity, dose response, PAX8 inhibitor project, plate reader, dry powder samples (AID 743044). Type of assay: functional, cell-based.
A short description of assay [5]: cytotoxicity in OVCAR8 ovarian cancer cells, dose response, PAX8 project, cell-based, plate reader, dry powder samples (AID 743197). To be noted: OVCAR-8. Type of assay: functional.
The target of a further assay is Paired box protein Pax-8 (Homo sapiens, UniProt Q06710). The experiment in a line: inhibitors of PAX8-driven TPO luciferase reporter, dose response, RMG-I cells, cherry-pick (AID 687027).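 Also: luciferase reporter driven by Pax8 target thyroperoxidase promoter measured by SteadyGlo luminescence.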 The assay is classed as functional, cell-based.
A further assay addresses Cytochrome P450 3A4 (Homo sapiens, UniProt P08684).
Assay [6] can be described thus: intracellular Trypanosoma cruzi inhibitors in host cells – cell-based, plate reader, cherry-pick samples, set 3, dose response (AID 651818).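 Also: compounds incubated with infected cells for about four days.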 The assay is classed as functional.
Assay [7] has as its target T2, Replicative DNA helicase DnaB (Mycobacterium tuberculosis, UniProt P9WMR3).
T2 sequence (P9WMR3 whole entry): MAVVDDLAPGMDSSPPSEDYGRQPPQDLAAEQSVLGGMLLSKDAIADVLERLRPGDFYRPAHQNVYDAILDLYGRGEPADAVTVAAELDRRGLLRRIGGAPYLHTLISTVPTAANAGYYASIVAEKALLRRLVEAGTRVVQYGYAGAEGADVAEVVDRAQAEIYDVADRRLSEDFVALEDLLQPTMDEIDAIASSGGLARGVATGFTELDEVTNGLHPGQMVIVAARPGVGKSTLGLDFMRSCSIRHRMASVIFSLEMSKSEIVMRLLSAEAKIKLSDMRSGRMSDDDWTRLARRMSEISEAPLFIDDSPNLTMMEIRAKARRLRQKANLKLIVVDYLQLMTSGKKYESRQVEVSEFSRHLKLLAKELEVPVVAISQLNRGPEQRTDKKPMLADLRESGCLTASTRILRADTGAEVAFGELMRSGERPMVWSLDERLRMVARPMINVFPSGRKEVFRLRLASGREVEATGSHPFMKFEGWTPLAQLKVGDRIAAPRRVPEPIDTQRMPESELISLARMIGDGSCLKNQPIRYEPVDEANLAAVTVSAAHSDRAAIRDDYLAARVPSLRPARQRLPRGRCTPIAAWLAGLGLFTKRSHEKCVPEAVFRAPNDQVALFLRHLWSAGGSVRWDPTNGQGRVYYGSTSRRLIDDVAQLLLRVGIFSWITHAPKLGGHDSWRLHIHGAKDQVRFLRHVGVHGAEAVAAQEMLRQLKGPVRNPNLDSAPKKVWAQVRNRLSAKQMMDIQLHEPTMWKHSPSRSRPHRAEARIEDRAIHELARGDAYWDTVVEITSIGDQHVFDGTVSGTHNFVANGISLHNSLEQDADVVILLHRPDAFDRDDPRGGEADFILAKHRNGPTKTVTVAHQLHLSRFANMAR
The experiment in a line: DnaB intein splicing inhibitors, dose response, biochemical, cell-free fluorescence (AID 449749). The assay is classed as functional.

A further assay has as its target T3, Protein RecA (Mycobacterium tuberculosis, UniProt P9WHJ3).
T3 sequence (P9WHJ3 whole entry): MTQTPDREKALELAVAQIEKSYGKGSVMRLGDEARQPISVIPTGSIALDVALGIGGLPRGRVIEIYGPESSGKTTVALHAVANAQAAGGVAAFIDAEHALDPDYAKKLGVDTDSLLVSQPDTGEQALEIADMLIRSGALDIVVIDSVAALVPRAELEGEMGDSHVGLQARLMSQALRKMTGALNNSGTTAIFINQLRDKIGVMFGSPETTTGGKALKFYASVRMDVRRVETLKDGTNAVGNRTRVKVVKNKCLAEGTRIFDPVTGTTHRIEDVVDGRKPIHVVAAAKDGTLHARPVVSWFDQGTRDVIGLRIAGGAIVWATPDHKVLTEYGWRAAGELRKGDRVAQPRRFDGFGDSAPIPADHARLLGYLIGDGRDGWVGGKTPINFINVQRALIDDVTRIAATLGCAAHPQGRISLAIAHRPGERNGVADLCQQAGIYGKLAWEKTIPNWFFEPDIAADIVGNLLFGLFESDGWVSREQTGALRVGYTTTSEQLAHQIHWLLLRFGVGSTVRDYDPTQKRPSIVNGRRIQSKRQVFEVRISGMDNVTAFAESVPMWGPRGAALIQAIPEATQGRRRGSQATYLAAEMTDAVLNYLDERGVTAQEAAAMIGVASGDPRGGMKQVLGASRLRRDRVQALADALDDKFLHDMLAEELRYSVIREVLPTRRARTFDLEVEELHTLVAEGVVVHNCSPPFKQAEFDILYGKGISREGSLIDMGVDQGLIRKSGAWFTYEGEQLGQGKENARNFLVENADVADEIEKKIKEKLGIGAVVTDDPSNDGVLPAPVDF
The assay is described as follows: Fluorescence Cell-Free Homogeneous Dose Retest to Identify Inhibitors of RecA-Intein Splicing Activity. [Related pubchem assays (depositor defined):AID2097, AID2223, AID489010, AID492950]. The assay is classed as functional.

In the next assay the test system is P388. The experiment in a line: cells. The assay is classed as functional. Particulars: Mus musculus.
For another assay, the system named is SN12K1. The experiment in a line: cells. Type of assay: functional. Particulars: Homo sapiens.
For another assay, the system named is P388/ADR. The assay is described as follows: cells. Type of assay: functional. To be noted: Mus musculus.
For a further assay, the target named is Large T antigen (Simian virus 40, UniProt P03070). The assay is classed as functional, Betapolyomavirus macacae.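 Also: Confirmatory-stage PubChem screen for compounds that inhibit SV40 T antigen.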
In assay [8] the target is FAD-linked sulfhydryl oxidase ALR (Homo sapiens, UniProt P55789). The experiment in a line: inhibitors of human ALR sulfhydryl oxidase, dose response, biochemical, H2O2 detection, luminescence, cherry-pick (AID 493248).
The nature of assay [9]: IGROV1 ovarian cancer cell cytotoxicity, dose response, PAX8 inhibitor project, plate reader, dry powder samples (AID 743043). The assay is classed as functional, cell-based. Particulars: IGROV-1.
For assay [10], the target named is T4, Low molecular weight phosphotyrosine protein phosphatase (Homo sapiens, UniProt P24666).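 Also: Dose-response confirmation assay measuring inhibition of LMPTP enzyme activity by fluorescence intensity read-out.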
T4 sequence (P24666 whole entry): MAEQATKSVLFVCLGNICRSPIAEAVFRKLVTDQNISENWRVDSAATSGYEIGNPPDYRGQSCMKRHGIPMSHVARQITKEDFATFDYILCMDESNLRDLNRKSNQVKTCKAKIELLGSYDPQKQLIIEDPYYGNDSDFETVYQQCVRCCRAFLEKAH
Type of assay: functional. Particulars: read-out: IC50_Mean.

Assay [11] in a line: Luminescence Cell-Based Dose Response HTS to Identify Activators of Luciferase Translation or Activity in H4 […] Cells. [Related pubchem assays: 1829 (Project Summary), 1814 (Primary HTS)]. The assay is classed as functional.
Another assay deals with H4. The assay is described as follows: Luminescence Cell-Based Dose Response HTS to Identify Activators of 5'UTR Stem-Loop Driven Prion Protein mRNA Translation in H4 Neuroglioblastoma Cells. [Related pubchem assays: 1829 (Project Summary), 1814 (Primary HTS)]. The assay is classed as functional. To be noted: Homo sapiens.
Assay [12] is described as follows: Luminescence Cell-Based Dose Confirmation HTS to Identify Activators of 5'UTR Stem-Loop Driven Alpha-Synuclein mRNA Translation in H4 Neuroglioblastoma Cells. [Related pubchem assays: 1829 (Project Summary), 1814 (Primary HTS)]. Type of assay: functional.

“And” between values parts separate entries of the source, which are not always exact repeats. Identical values can stand only once. The source made the active and inactive calls.

We go through 21 compounds from ChEMBL document CHEMBL1201862, “PubChem BioAssay data set” (2004).

Paired box protein Pax-8, sequence (Q06710 whole entry): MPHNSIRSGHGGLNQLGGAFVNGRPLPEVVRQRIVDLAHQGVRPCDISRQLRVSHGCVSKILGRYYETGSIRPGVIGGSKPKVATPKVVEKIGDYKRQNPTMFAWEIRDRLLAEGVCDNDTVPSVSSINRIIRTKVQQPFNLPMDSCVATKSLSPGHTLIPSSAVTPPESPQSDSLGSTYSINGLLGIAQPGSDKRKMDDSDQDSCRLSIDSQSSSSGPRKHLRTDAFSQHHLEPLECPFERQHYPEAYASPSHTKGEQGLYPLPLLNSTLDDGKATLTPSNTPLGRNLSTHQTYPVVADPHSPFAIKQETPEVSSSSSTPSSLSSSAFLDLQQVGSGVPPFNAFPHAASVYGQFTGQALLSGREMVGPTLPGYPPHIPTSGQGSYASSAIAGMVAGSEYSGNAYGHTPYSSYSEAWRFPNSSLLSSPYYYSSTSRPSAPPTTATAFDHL
FAD-linked sulfhydryl oxidase ALR, sequence (P55789 whole entry): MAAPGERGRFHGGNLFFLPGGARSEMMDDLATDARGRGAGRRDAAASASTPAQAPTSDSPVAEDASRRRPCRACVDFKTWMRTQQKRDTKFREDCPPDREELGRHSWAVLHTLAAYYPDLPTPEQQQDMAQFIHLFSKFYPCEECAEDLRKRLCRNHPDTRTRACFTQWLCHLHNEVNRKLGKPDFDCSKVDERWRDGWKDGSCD
Cytochrome P450 3A4, sequence (P08684 whole entry): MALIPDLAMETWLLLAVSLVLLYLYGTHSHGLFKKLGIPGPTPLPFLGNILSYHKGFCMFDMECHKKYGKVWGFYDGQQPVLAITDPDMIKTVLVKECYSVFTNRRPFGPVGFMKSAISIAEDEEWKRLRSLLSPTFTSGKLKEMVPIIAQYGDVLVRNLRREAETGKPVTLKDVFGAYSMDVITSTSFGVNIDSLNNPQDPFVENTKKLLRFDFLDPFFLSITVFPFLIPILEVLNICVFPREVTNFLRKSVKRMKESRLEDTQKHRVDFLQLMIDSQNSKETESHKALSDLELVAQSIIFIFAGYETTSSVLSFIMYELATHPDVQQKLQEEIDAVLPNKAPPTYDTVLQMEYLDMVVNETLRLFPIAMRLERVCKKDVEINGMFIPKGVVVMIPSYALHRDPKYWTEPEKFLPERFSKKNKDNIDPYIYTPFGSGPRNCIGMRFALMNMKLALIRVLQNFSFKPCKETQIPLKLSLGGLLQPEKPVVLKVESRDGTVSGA
Large T antigen, sequence (P03070 whole entry): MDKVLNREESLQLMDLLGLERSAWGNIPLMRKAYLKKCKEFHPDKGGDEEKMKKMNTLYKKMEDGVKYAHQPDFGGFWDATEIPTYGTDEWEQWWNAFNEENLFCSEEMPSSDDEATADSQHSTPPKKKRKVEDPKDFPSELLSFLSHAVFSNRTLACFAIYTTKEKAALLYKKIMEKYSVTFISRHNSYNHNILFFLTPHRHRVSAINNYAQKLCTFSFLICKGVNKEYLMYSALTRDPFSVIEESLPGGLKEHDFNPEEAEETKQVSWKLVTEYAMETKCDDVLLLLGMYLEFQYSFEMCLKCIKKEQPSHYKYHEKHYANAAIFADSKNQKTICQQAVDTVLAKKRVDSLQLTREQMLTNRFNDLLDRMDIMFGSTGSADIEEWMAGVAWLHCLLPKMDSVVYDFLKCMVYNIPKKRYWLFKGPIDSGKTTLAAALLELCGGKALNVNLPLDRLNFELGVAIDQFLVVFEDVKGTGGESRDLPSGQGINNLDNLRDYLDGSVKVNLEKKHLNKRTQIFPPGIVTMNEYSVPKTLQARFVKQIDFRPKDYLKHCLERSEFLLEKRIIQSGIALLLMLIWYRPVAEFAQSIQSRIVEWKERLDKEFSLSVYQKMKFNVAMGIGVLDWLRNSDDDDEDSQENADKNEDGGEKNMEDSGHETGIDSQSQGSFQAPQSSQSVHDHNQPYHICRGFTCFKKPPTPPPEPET

For `Cc1cccc(CN2C3=NCCCN3c3ccccc32)c1`, the EC50 in [1] was > 50 µM (active).
As for `C(=NOCCc1ccccc1)c1cccnc1`, the EC50 in the assay “cells [2]” was > 29.8 µM (inactive). The IC50 in “cells [3]” is > 29.8 µM (inactive).
For the compound `COc1ccc(NS(=O)(=O)c2cccc(NC(=O)c3ccccn3)c2)cc1`, in [1], the EC50 was > 50 µM (active).
On to `Cc1ccc(-n2c(C)cc(C(=O)NS(=O)(=O)c3ccc(C)cc3)c2C)cc1`, for which the IC50 on Leucine aminopeptidase was 25.4 µM (active).
On to `COc1ccc(CNC(=O)C2CC(C)=C(C)CC2C(=O)O)cc1` (configuration not stated), for which, on Leucine aminopeptidase, the IC50 is 43.7 µM (active).
As for `C[C@@H]1CN([C@H](C)CO)C(=O)c2cc(NS(=O)(=O)c3ccccc3)ccc2O[C@@H](C)CCCCO[C@@H]1CN(C)CC1CCCCC1`, the AC50 was 53.9 µM (active) in assay [4], 68 µM (active) in [5] and 19.6 µM (active) at Paired box protein Pax-8.
With `Cc1cc(Cl)nc(Cl)c1C(=O)NCCc1ccccc1`, the EC50 in the assay “cells [2]” is > 29.9 µM (inactive). Besides, the IC50 in “cells [3]” is > 29.9 µM (inactive).
On to `CC(=O)c1cccc(NC(=O)CCC2CCCC2)c1`, for which the AC50 at Cytochrome P450 3A4 was 28.2 µM (inconclusive). Further, in assay [1], the EC50 is > 50 µM (active).
As for `C[C@@H]1CN([C@H](C)CO)C(=O)Cc2cc(NC(=O)NC3CCCCC3)ccc2O[C@H]1CN(C)Cc1ccc(-c2ccccc2)cc1`, the AC50 in [6] was 4.51 µM (active).
With `O=C(Cc1cc(O)n[nH]1)N/N=C/c1c(Cl)cccc1Cl`, the IC50 at Leucine aminopeptidase was 49.9 µM (active). The AC50 in assay [7] is 2.66 µM (active) and 7.7 µM (active). For the same compound, the EC50 on Protein RecA is 6.26 µM (inconclusive) and 1.51 µM (active).
For `O=C(O)C1CC=CCC1C(=O)NCCc1ccccc1` (configuration not stated), in the assay “cells [2]”, the EC50 is > 29.9 µM (inactive). Also, the IC50 in “cells [3]” was > 29.9 µM (inactive).
Regarding `COc1ccc(S(=O)(=O)Nc2ccc3c(c2)CC(=O)N([C@@H](C)CO)C[C@@H](C)[C@@H](CN(C)Cc2ccc(C(F)(F)F)cc2)O3)cc1`, in [6], the AC50 was 5.93 µM (active).
`C[C@H](CO)N1C[C@H](C)[C@H](CN(C)Cc2ccc(C(=O)Nc3ccccc3N)cc2)Oc2c(cccc2N(C)C)C1=O`: the AC50 in assay [6] was 3.67 µM (active).
Take `C=C1CCCC(C)(C)[C@@H]1CC/C(C)=C/Cn1c2cccc(=O)c-2nc2ccccc21`: the GI50 in the assay with P388 is 0.569 µM (active); in the assay on SN12K1, 1.48 µM (inactive); in the assay on P388/ADR it was 0.229 µM (active).
Take `C/C(=N/NC(=O)Cc1c(C)n[nH]c1O)c1ccc(O)cc1`: the values for the IC50 at Leucine aminopeptidase and on Large T antigen were 4.09 µM (active) and 31.4 µM (active), respectively. Besides, the AC50 in [8] is 1.49 µM (active).
As for `C[C@@H]1CCCCO[C@@H](CN(C)S(=O)(=O)c2ccc(Cl)cc2)[C@H](C)CN([C@H](C)CO)C(=O)c2cc(NS(=O)(=O)c3ccc(F)cc3)ccc2O1`, the figures for the AC50 (on Paired box protein Pax-8; in [9]) were 3.41 µM (active) and 57.7 µM (active), respectively.
`CCn1cc(C(=O)O)c(=O)c2cnc(N3CCN(C(=S)Nc4ccccc4Cl)CC3)nc21`: the IC50 in [10] is 35.9 µM (inactive). Besides, the EC50 (in assay [11]; in the assay on H4; in [12]) was > 120 µM (not active) throughout.
In the case of `C[C@H](CO)N1C[C@H](C)[C@H](CN(C)C(=O)Nc2ccc(C(F)(F)F)cc2)Oc2c(NC(=O)Nc3ccc(C(F)(F)F)cc3)cccc2C1=O`, in [6], the AC50 was 6.56 µM (active).
Consider `C=Cc1cc(OC)c2c(c1)c(=O)oc1c2cc(OC)c2c(O)ccc(C3OC(C)C(O)C(C)(O)C3O)c21` (configuration not stated), for which, at Paired box protein Pax-8, the AC50 is < 0.26 µM (active). The GI50 with P388 was 0.0225 µM (active); in the assay with SN12K1 it was 0.0269 µM (active); with P388/ADR, 0.0225 µM (active).
As to `O=C1CC(=O)C(n2cncn2)C(c2ccc(Cl)cc2Cl)C1` (configuration not stated), the IC50 at Leucine aminopeptidase was 17.9 µM (active).
With `O=c1n(CC2CO2)c(=O)n(CC2CO2)c(=O)n1CC1CO1` (configuration not stated) [TEROXIRONE], the values for the GI50 in the assay on P388, in the assay with SN12K1 and in the assay with P388/ADR were 1.61 µM (inactive), 35.6 µM (inactive) and 1.91 µM (inactive), respectively.
